This passage reports MIC results from DBAASP.

Test systems include Staphylococcus aureus; Acinetobacter baumannii; Enterococcus faecium; Pseudomonas aeruginosa; Streptococcus pyogenes; Salmonella typhimurium; Klebsiella pneumoniae; Aeromonas sobria; Escherichia coli MC1061; Edwardsiella tarda; Streptococcus sanguinis.
Common to all, as to experiment: ≥ marks a high value that may be exact or a test limit, other limits are often not marked, values filed in µg/mL are converted to µM
In experiment [1] the test system is Staphylococcus aureus CPCC 100520.
The subject of experiment [2] is Candida albicans CPCC 400416.
For experiment [3], the system named is Escherichia coli CPCC 100521.
For experiment [4], the system named is Burkholderia cepacia ATCC 25416.
Experiment [5] relates to Streptococcus pneumoniae ATCC 49619.
Experiment [6] deals with Pseudomonas aeruginosa PA14.
The test system of experiment [7] is Pseudomonas aeruginosa ATCC 27853.
The subject of experiment [8] is Acinetobacter baumannii ATCC 19606.
The subject of experiment [9] is Staphylococcus aureus ATCC 29213.
Experiment [10] concerns Listeria monocytogenes 10403s.
Experiment [11] concerns Stenotrophomonas maltophilia.
In experiment [12] the test system is Escherichia coli ATCC 25922.
The subject of experiment [13] is Pseudomonas aeruginosa 547.
For experiment [14], the system named is Escherichia coli O18:K1:H7.
Experiment [15] has as its system Klebsiella pneumoniae ATCC 27736.
For experiment [16], the system named is Serratia marcescens ATCC 8100.
In experiment [17] the test system is Shigella flexneri CGMCC 1.1868.
In experiment [18] the test system is Candida albicans CGMCC 2.2411.
In experiment [19] the test system is Micrococcus luteus CGMCC 1.0634.
Experiment [20] concerns Pseudomonas fluorescens CGMCC 1.0032.
The test system of experiment [21] is Bacillus subtilis CGMCC 1.108.
Experiment [22] concerns Micrococcus luteus CGMCC 1.634.
The test system of experiment [23] is Staphylococcus epidermidis CGMCC 1.2429.
The test system of experiment [24] is Vibrio fluvialis CGMCC 1.1609.
Experiment [25] deals with Vibrio harveyi CGMCC 1.1593.
The subject of experiment [26] is Vibrio parahaemolyticus CGMCC 1.1615.
In experiment [27] the test system is Vibrio alginolyticus CGMCC 1.1833.
The test system of experiment [28] is Aeromonas hydrophila CGMCC 1.0927.
The test system of experiment [29] is Staphylococcus aureus CGMCC 1.363.
Experiment [30] deals with Corynebacterium glutamicum CGMCC 1.1886.

The term MIC denotes the smallest concentration in the dilution series that meets the test's criterion for growth inhibition. Low values mean inhibition by little substance, high ones a need for much substance.

≈ marks a conversion by molar mass, not a printed value. A value given as a limit tells only on which side of the number the result lay.

Take `CC[C@H](C)[C@H](NC(=O)CN)C(=O)NCC(=O)N[C@@H](CO)C(=O)N[C@@H](C)C(=O)N[C@H](C(=O)N[C@@H](CC(C)C)C(=O)N[C@@H](CO)C(=O)N[C@@H](C)C(=O)NCC(=O)N[C@@H](CCCCN)C(=O)N[C@@H](CO)C(=O)N[C@H](C(=O)N[C@H](C(=O)N[C@@H](CCCCN)C(=O)NCC(=O)N[C@@H](CC(C)C)C(=O)N[C@@H](C)C(=O)N[C@@H](CCCCN)C(=O)NCC(=O)N[C@@H](CC(C)C)C(=O)N[C@@H](C)C(=O)N[C@@H](CCC(=O)O)C(=O)N[C@@H](Cc1cnc[nH]1)C(=O)N[C@@H](Cc1ccccc1)C(N)=O)[C@@H](C)CC)[C@@H](C)CC)[C@@H](C)CC` [GIGSAILSAGKSIIKGLAKGLAEHF]: the MIC in experiment [1] is 26.2 µM (≈ 64 µg/mL); in experiment [2], at least 52.5 µM; in experiment [3], 26.2 µM (≈ 64 µg/mL).

Take `CSCC[C@@H](NC(=O)[C@@H](Cc1c[nH]c2ccccc12)NC(=O)CNC(=O)CNC(=O)[C@@H](CCCN=C(N)N)NC(=O)[C@@H](CCCN=C(N)N)NC(=O)[C@@H](CCCN=C(N)N)NC(=O)[C@@H](CCC(N)=O)NC(=O)[C@@H](CCCN=C(N)N)NC(=O)[C@@H](CCCN=C(N)N)NC(=O)[C@@H](CCCCN)NC(=O)[C@@H](CCCCN)NC(=O)[C@@H](CCCN=C(N)N)NC(=O)CN)C(=O)N[C@H](Cc1c[nH]c2ccccc12)C(=O)N[C@@H](C(=O)N[C@@H](C(=O)N[C@H](CC(N)=O)C(=O)N[C@H](CC(C)C)C(=O)N[C@H](CCCN=C(N)N)C(=O)N[C@@H](C(=O)N[C@H](CC(=O)O)C(=O)O)[C@H](C)O)[C@H](C)O)C(C)C` [GRKKRRQRRRGGWMWVTNLRTD]: the MIC in [4] was at least 91 µM; in the experiment on Staphylococcus aureus, 45.5 µM (≈ 128 µg/mL); in [5] it was 22.7 µM (≈ 64 µg/mL); with Acinetobacter baumannii, 5.69 µM (≈ 16 µg/mL); in experiment [6] it was 11.4 µM (≈ 32 µg/mL); in the experiment with Enterococcus faecium, 22.7 µM (≈ 64 µg/mL). In addition, the MIC in the experiment with Pseudomonas aeruginosa was over 45.5 µM; in experiment [7] it was 22.7 µM (≈ 64 µg/mL); in [8] it was 2.84 µM (≈ 8 µg/mL); in experiment [9], 45.5 µM (≈ 128 µg/mL); in the experiment on Streptococcus pyogenes, 2.84 µM (≈ 8 µg/mL); in [10] it was at least 45.5 µM. Besides, the MIC in experiment [11] was 5.69 µM (≈ 16 µg/mL); in experiment [12], 11.4 µM (≈ 32 µg/mL); in experiment [13] it was at least 45.5 µM; in experiment [14] it was 22.7 µM (≈ 64 µg/mL); in experiment [15], at least 91 µM; in [16], at least 91 µM. Besides, the values for the MIC in the experiment with Salmonella typhimurium and in the experiment on Klebsiella pneumoniae were 22.7 µM (≈ 64 µg/mL) and over 91 µM, respectively.

As to `CC[C@H](C)[C@H](NC(=O)[C@H](CCCN=C(N)N)NC(=O)CNC(=O)[C@@H](NC(=O)[C@@H]1CCCN1C(=O)[C@H](Cc1ccccc1)NC(=O)[C@H](CCC(N)=O)NC(=O)[C@H](CC(C)C)NC(=O)CNC(=O)[C@H](C)NC(=O)[C@H](CCCN=C(N)N)NC(=O)[C@H](C)NC(=O)[C@H](CO)NC(=O)[C@H](CCCN=C(N)N)NC(=O)[C@H](CO)NC(=O)[C@@H](NC(=O)[C@H](C)NC(=O)[C@H](CCCCN)NC(=O)[C@H](C)NC(=O)[C@H](CCCCN)NC(=O)[C@H](C)NC(=O)[C@@H](N)CCCCN)C(C)C)C(C)C)C(=O)N[C@@H](Cc1cnc[nH]1)C(=O)N[C@@H](CCCN=C(N)N)C(=O)N[C@@H](Cc1cnc[nH]1)C(=O)N[C@@H](CC(C)C)C(=O)N[C@@H](CCCCN)C(=O)O` [KAKAKAVSRSARAGLQFPVGRIHRHLK], the MIC is 1.06 µM (≈ 3.16 µg/mL) in experiment [17]; at least 33.9 µM in experiment [18]; 1.06 µM (≈ 3.16 µg/mL) in experiment [19]; 1.06 µM (≈ 3.16 µg/mL) in experiment [20]; 2.12 µM (≈ 6.33 µg/mL) in experiment [21]; 4.24 µM (≈ 12.7 µg/mL) against Aeromonas sobria. The MIC in [22] is 1.06 µM (≈ 3.16 µg/mL); in experiment [23], 2.12 µM (≈ 6.33 µg/mL); against Escherichia coli MC1061 it was 2.12 µM (≈ 6.33 µg/mL); in experiment [24] it was at least 48 µM; against Edwardsiella tarda, at least 48 µM; in [25] it was at least 48 µM. Also, the MIC was at least 48 µM in [26]; at least 48 µM in experiment [27]; 1.06 µM (≈ 3.16 µg/mL) in experiment [28]; 2.12 µM (≈ 6.33 µg/mL) in [29]; 1.06 µM (≈ 3.16 µg/mL) in [30].

Consider `CC[C@H](C)[C@H](NC(=O)[C@H](Cc1ccccc1)NC(=O)[C@@H](N)CC(C)C)C(=O)N[C@@H](Cc1ccccc1)C(=O)N[C@@H](Cc1ccccc1)C(=O)N[C@@H](Cc1ccccc1)C(N)=O` [LFIFFF], for which the MIC in the experiment on Staphylococcus aureus was determined as 15.4 µM (≈ 12.8 µg/mL); in the experiment with Streptococcus sanguinis, 4.65 µM (≈ 3.87 µg/mL).
